target: Cannabinoid receptor 2 (Homo sapiens, UniProt P34972); assay: Binding Assay: Affinity binding tests were performed according to the experimental conditions described by M. Rinaldi-Carmona in J. Pharmacol. Exp. Therap. 1998, 287, 644-650, with membranes derived either from rodent tissues or from recombinant cell lines in which the human CB2 receptors were expressed (Munro et al., Nature 1993, 365, 61-65). The affinity of the compounds is expressed in the form of the IC50 (concentration causing 50% inhibition of specific binding of the tritiated ligand used in vitro).
Sequence (P34972 whole entry): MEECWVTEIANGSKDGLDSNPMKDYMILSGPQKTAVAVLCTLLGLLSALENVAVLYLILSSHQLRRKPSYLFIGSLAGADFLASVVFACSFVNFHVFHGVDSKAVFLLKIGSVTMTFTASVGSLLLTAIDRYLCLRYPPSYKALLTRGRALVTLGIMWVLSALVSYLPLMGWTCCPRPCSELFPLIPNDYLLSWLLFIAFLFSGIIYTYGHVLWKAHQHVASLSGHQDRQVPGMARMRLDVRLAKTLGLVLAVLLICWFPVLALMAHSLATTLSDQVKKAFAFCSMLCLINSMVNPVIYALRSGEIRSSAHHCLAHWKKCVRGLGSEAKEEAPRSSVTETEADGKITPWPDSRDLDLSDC

IC50 [nM] | Structure (SMILES)
1 | COc1nc(NCCc2ccc(F)cc2)nc(-c2ccc(Cl)c(OCC(N)=O)c2)n1
1.2 | COc1nc(NCCc2ccc(OC(F)F)cc2)nc(-c2ccc(Cl)c(C(C)(C)O)c2)n1
3.9 | COc1nc(NCCc2ccc(OCF)cc2)nc(-c2ccc(Cl)c(C(C)(C)O)c2)n1
12 | COc1nc(NCCc2ccc(F)cc2)nc(-c2ccc(OC)c(S(=O)(=O)NC3CC3)c2)n1
41 | COc1nc(NCCc2ccc(OC(F)F)cc2)nc(-c2ccc(Cl)c(OCCCNS(C)(=O)=O)c2)n1

Second part, the compound before the results:

Structure (SMILES) | IC50 [nM]
COc1nc(NCCc2ccc(F)cc2)nc(-c2cccc(C(C)(C)O)c2)n1 | 9
COc1nc(NCCc2ccc(F)cc2)nc(-c2ccc(OC)c(C(C)(C)O)c2)n1 | 1
COc1nc(NCCc2ccc(F)cc2)nc(-c2cc3c(Cl)cccc3[nH]2)n1 | 7
COc1nc(NCCc2ccc(F)cc2)nc(-c2ccc(Cl)c(O)c2)n1 | 21
COc1nc(NCCc2ccc(F)cc2)nc(-c2cc3cc(F)ccc3[nH]2)n1 | 12
CCOC(=O)COc1cc(-c2nc(NCCc3ccc(F)cc3)nc(OC)n2)ccc1Cl | 10
COc1cccc(-c2nc(NCCc3ccc(F)cc3)nc(OC)n2)c1 | 29

Source: ChEMBL document CHEMBL3638626, “1,3,5-triazine-2-amine derivatives, preparation thereof and diagnostic and therapeutic use thereof” (2015)
